These results are taken from patent US8946478B2, “Benzamide derivative with anticancer activity and preparation method and use thereof” (Zhejiang Hisun Pharmaceutical Co., Ltd., priority 2010, dated 2015).

Assay [1] relates to human breast cancer cell strain MDA-MB435. The assay is described as follows: In vitro SRB tumor cell growth inhibition (GI50). It counts as cell-based. Conditions: Homo sapiens, MDA-MB-435, 48 h, MDA-MB435 cells. Here is the method: (§1) Human colon cancer cell strains (Colo205 and HCT-116), human breast cancer cell strains (MCF-7 and MDA-MB435), human lung cancer cell strains (A549, 95D and NCI460), human ovarian cancer cell strains (OVCAR-5, OVCAR-8, HO8910 and SKOV-3), human leukemia (HL-60 and K562), human prostate cancer (DU145 and BXPC-3), human uterine cancer (Hela), human pancreatic cancer (PANC-1), human hepatoma (HepG 2) were all obtained from ATCC. Colo205, HL-60, K562 cells were cultured in RPMI 1640 containing 2 mM/L glutamine, 10% FBS, 1.0 mM sodium pyruvate. HCT-116, MCF-7, A549, 95D, HO8910, NCI460, OVCAR-5, OVCAR-8, DU145, BXPC-3, Hela, PANC-1, HepG2 cells were cultured in DMEM containing 2 mM/L glutamine, 10% FBS. MDA-MB435 cells were cultured in L-15 containing 2 mM/L glutamine, 10% FBS. SKOV-3 cells were cultured in McCoy's containing 2 mM/L glutamine, 10% FBS. Colo205, HL-60 and K562 cells were seeded in 96-well plates, 150 μL/well and 8000 cells/well, and the 96-well plates were pre-incubated in an incubator at 37° C. with 5% CO2, 100% relative humidity for 24 hours. HCT-116, MCF-7, NCI460, OVCAR-5, OVCAR-8, Hela, HepG 2 and MDA-MB435 cells were seeded in 96-well plates, 5000 cells/well; A549, 95D, HO8910, DU145, BXPC-3, PANC-1 and SKOV-3 cells were seeded in 96-well plates, 10000 cells/well, and the 96-well plates were pre-incubated in an incubator at 37° C. with 5% CO2, 100% relative humidity for 24 hours, to allow the cells to adhere.
(§2) 50 μL of pre-cooled 50% (mass/volume) TCA was added into the time zero control wells for each cell strain to fix the cells. To other wells, 50 μL of various concentrations of compounds were added, and maintained for 48 h, wherein each drug concentration was in triplicate, and there were blank control wells (cell culture medium without cells), drug-free control wells (with no drugs but the same volume of complete medium) and positive drug BSI-201 control wells, and the plates were incubated in an incubator at 37° C. with 5% CO2, full humidity (100% relative humidity) for 48 hours
(§3) 50 μL pre-cooled 50% (mass/volume) TCA was added onto the surface of the culture medium to fix the cells, which was then placed at 4° C. for 1 h. The supernatant was removed and each well was washed with deionized water for 5 times to remove TCA, serum proteins, etc. After dried in the air, about 100 μL enough amount of 0.4% SRB (formulated with 1% acetic acid) was added into each well, and was placed at room temperature for 20 to 30 min. Liquid in each well was discarded and each well was rapidly washed with 1% acetic acid for five times, to remove unbound dye until the unbound dye was completely rinsed clean. After dried in the air until the moisture was invisible, each well was added 200 μL Tris base to dissolve, shaken on a plate oscillator for 5 min or mixed by beating up and down with a pipette tip, and then measured on the multi-function instruction (M5 Detection System, MD Group Ltd.) with a detection wavelength of 515 nm, zero adjusted with 690 nm blank control.
(§4) The dose-response curve was plotted by XL-fit to determine the GI50 value.

The next assay relates to 18 tumor cell strains. The assay is described as follows: In vitro efficacy screening, summary over the tumor cell strains. It counts as cell-based, human. The conditions noted are these: in vitro screening; for inhibitory effects on tumor cell proliferation (in words): BSI-201 as positive drug. The procedure: as §1, §2, §3, §4
Assay [2] deals with human breast cancer cell strain MCF-7. Briefly: In vitro SRB tumor cell growth inhibition (GI50). It is filed as cell-based. Conditions: Homo sapiens, MCF7, 48 h, MCF-7 cells. Here is the method:
as §1, §2, §3, §4

The test system of assay [3] is human lung cancer cell strain NCI-460. Briefly: In vitro SRB tumor cell growth inhibition (GI50). It counts as cell-based. Conditions: Homo sapiens, NCI-460, 48 h, NCI-460 cells. Here is the method:
as §1, §2, §3, §4

Assay [4] relates to human colon cancer cell strain HCT-116. Briefly: In vitro SRB tumor cell growth inhibition (GI50). It counts as cell-based. The conditions noted are these: Homo sapiens, HCT-116, 48 h, HCT-116 cells. Here is the method: as §1, §2, §3, §4
A further assay deals with human leukemia HL-60. The assay is described as follows: In vitro SRB tumor cell growth inhibition (GI50). It counts as cell-based. Conditions: Homo sapiens, HL-60, 48 h, HL-60 cells. Here is the method: as §1, §2, §3, §4
Assay [5] concerns human ovarian cancer cell strain OVCAR-8. The assay is described as follows: In vitro SRB tumor cell growth inhibition (GI50). Conditions: Homo sapiens, OVCAR-8, 48 h, OVCAR-8 cells. It counts as cell-based. The procedure:
as §1, §2, §3, §4

Assay [6] relates to human lung cancer cell strain 95D. Briefly: In vitro SRB tumor cell growth inhibition (GI50). It is filed as cell-based. The conditions noted are these: Homo sapiens, 95-D, 48 h, 95D cells. Here is the method:
as §1, §2, §3, §4

On to `C#Cc1ccc(C(=O)NC(=O)OCCC)cc1[N+](=O)[O-]` [Compound I-4, N-propoxycarbonyl-4-ethynyl-3-nitrobenzamide], for which it took 12.6 µM to inhibit growth in assay [1] by half (GI50). Moreover, in the assay with 18 tumor cell strains, the “efficacy in inhibition of tumor cell proliferation, graded in words against I-1” value (“efficacy in inhibition” for short) is listed as “good effects on inhibition of tumor cell proliferation” and the “inhibitory effects on tumor cell proliferation (in words)” value (“inhibitory effects” for short) is “have inhibitory effects on tumor cell proliferation”.

Take `C#Cc1ccc(C(=O)NC(=O)OCCCC)cc1[N+](=O)[O-]` [Compound I-5, N-butoxycarbonyl-4-ethynyl-3-nitrobenzamide]: the figures for the GI50 in assay [2], in assay [3] and in assay [4] were 10.1 µM, 20.1 µM and 17.9 µM, respectively. For the same molecule, the “efficacy in inhibition” value in the assay on 18 tumor cell strains is “good effects on inhibition of tumor cell proliferation”. Further, in the assay on 18 tumor cell strains, the “inhibitory effects” value was “have inhibitory effects on tumor cell proliferation”.

For the molecule `N#Cc1ccc(C(N)=O)cc1[N+](=O)[O-]` [Compound I-8, 4-cyano-3-nitrobenzamide], the figures for the GI50 in assay [4] and in assay [1] were 13 µM and 32.2 µM, respectively. Also, the “efficacy in inhibition” value with 18 tumor cell strains is “good effects on inhibition of tumor cell proliferation”. For the same molecule, in the assay with 18 tumor cell strains, the “inhibitory effects” value is recorded as “have inhibitory effects on tumor cell proliferation”.

In the case of `C#Cc1ccc(C(=O)NC)cc1[N+](=O)[O-]` [Compound I-9, N-methyl-4-ethynyl-3-nitrobenzamide], the 50% growth inhibitory concentration (GI50) (commonly the concentration at which growth is held to half of that of the control) in assay [2] amounted to 6.7 µM; in assay [3] it was 11.5 µM; in the assay on human leukemia HL-60 it was 9.71 µM; in assay [4], 22.5 µM. The “efficacy in inhibition” value with 18 tumor cell strains is recorded as “good effects on inhibition of tumor cell proliferation”. Also, the “inhibitory effects” value with 18 tumor cell strains is “have inhibitory effects on tumor cell proliferation”.

As for `C#Cc1ccc(C(=O)N(C)C)cc1[N+](=O)[O-]` [Compound I-10, N,N-dimethyl-4-ethynyl-3-nitrobenzamide], the 50% growth inhibitory concentration (GI50) in assay [2] worked out at 12.3 µM; in assay [3] it was 24.1 µM; in the assay with human leukemia HL-60, 3.78 µM; in assay [4], 18.3 µM. In the assay on 18 tumor cell strains, the “efficacy in inhibition” value is “good effects on inhibition of tumor cell proliferation”. The “inhibitory effects” value with 18 tumor cell strains was “have inhibitory effects on tumor cell proliferation”.

Take `C#Cc1ccc(C(=O)NC(C)=O)cc1[N+](=O)[O-]` [Compound I-11, N-acetyl-4-ethynyl-3-nitrobenzamide]: the 50% growth inhibitory concentration (GI50) in assay [2] was found to be 10.7 µM; in assay [3] it was 13.4 µM; with human leukemia HL-60, 2.35 µM; in assay [4], 12.1 µM. In addition, in the assay with 18 tumor cell strains, the “efficacy in inhibition” value was “good effects on inhibition of tumor cell proliferation”. In addition, the “inhibitory effects” value with 18 tumor cell strains is reported as “have inhibitory effects on tumor cell proliferation”.

With `CC#Cc1ccc(C(N)=O)cc1[N+](=O)[O-]` [Compound I-12, 4-(1-propynyl)-3-nitrobenzamide], the 50% growth inhibitory concentration (GI50) in the assay with human leukemia HL-60 was 34.6 µM. In the assay with 18 tumor cell strains, the “efficacy in inhibition” value is “good effects on inhibition of tumor cell proliferation” and the “inhibitory effects” value was “have inhibitory effects on tumor cell proliferation”.

On to `C#Cc1ccc(C(=O)NC(=O)c2ccccc2)cc1[N+](=O)[O-]` [Compound I-13, N-benzoyl-4-ethynyl-3-nitrobenzamide], for which the GI50 in assay [2] turned out to be 25.3 µM; in assay [1] it was 6.24 µM. Moreover, in the assay with 18 tumor cell strains, the “efficacy in inhibition” value is “good effects on inhibition of tumor cell proliferation”. Also, the “inhibitory effects” value in the assay with 18 tumor cell strains is given as “have inhibitory effects on tumor cell proliferation”.

Consider `C#Cc1ccc(C(=O)N(CCCC)CCCC)cc1[N+](=O)[O-]` [Compound I-16, N,N-dibutyl-4-ethynyl-3-nitrobenzamide], for which the concentration for 50% growth inhibition (GI50) was 8.21 µM in assay [2], 15.5 µM in assay [3], 1.27 µM in the assay on human leukemia HL-60 and 12.9 µM in assay [4]. Moreover, the “efficacy in inhibition” value in the assay with 18 tumor cell strains is given as “good effects on inhibition of tumor cell proliferation”. In addition, the “inhibitory effects” value in the assay on 18 tumor cell strains is “have inhibitory effects on tumor cell proliferation”.

As to `C#Cc1ccc(C(=O)NCCC)cc1[N+](=O)[O-]` [Compound I-18, N-propyl-4-ethynyl-3-nitrobenzamide], the GI50 was 6.29 µM in assay [2], 7.09 µM in assay [3], 4.86 µM in the assay with human leukemia HL-60 and 9.45 µM in assay [4]. Also, in the assay on 18 tumor cell strains, the “efficacy in inhibition” value is recorded as “good effects on inhibition of tumor cell proliferation”. Further, the “inhibitory effects” value with 18 tumor cell strains was “have inhibitory effects on tumor cell proliferation”.

As to `C#Cc1ccc(C(=O)NCCCC)cc1[N+](=O)[O-]` [Compound I-19, N-butyl-4-ethynyl-3-nitrobenzamide], the GI50 amounted to 9.59 µM in assay [2], 10.1 µM in assay [3], 5.15 µM in the assay with human leukemia HL-60 and 9.01 µM in assay [4]. Besides, the “efficacy in inhibition” value in the assay on 18 tumor cell strains is “good effects on inhibition of tumor cell proliferation”. The “inhibitory effects” value in the assay with 18 tumor cell strains is “have inhibitory effects on tumor cell proliferation”.

For `C#Cc1ccc(C(=O)N2CCOCC2)cc1[N+](=O)[O-]` [Compound I-22, (4-ethynyl-3-nitrophenyl)(morpholin-4-yl)ketone], the 50% growth inhibitory concentration (GI50) came to 13.4 µM in assay [2] and 6.53 µM in assay [1]. Also, the “inhibitory effects” value in the assay on 18 tumor cell strains was “have inhibitory effects on tumor cell proliferation”.

Consider `C#Cc1ccc(C(=O)N2CCC2)cc1[N+](=O)[O-]` [Compound I-25], for which the 50% growth inhibitory concentration (GI50) in assay [2] turned out to be 9.5 µM; in assay [5] it was 14.4 µM; in assay [3] it was 27.7 µM; in assay [4] it was 10.9 µM.

For `CNC(=O)c1ccc(C#N)c([N+](=O)[O-])c1` [Compound I-27, N-methyl-4-cyano-3-nitrobenzamide], the figures for the GI50 in assay [2] and in assay [1] were 31.6 µM and 29.3 µM, respectively. For the same molecule, the “efficacy in inhibition” value in the assay on 18 tumor cell strains is reported as “good effects on inhibition of tumor cell proliferation”. In addition, in the assay on 18 tumor cell strains, the “inhibitory effects” value is recorded as “have inhibitory effects on tumor cell proliferation”.

For the molecule `C#Cc1ccc(C(N)=O)cc1N=O` [Compound I-28, 4-ethynyl-3-nitrosobenzamide], the GI50 worked out at 9.78 µM in assay [2], 17.2 µM in assay [5] and 18.1 µM in assay [6]. Besides, the “efficacy in inhibition” value with 18 tumor cell strains is “good effects on inhibition of tumor cell proliferation”. In addition, in the assay on 18 tumor cell strains, the “inhibitory effects” value was “have inhibitory effects on tumor cell proliferation”.
